The structures appear in SMILES notation. The source made the active and inactive calls. The rule behind the calls is not given here.

The values below come from ChEMBL document CHEMBL1159024, “Inhibitory effect of tannic acid on gastric H+,K(+)-ATPase” (J Nat Prod, 1992).

Assay [1] in a line: Inhibition of H(+)/K(+) ATPase from pig gastric mucosa. In kind it is tissue-based, Sus scrofa.
Assay [2] can be described thus: Inhibition of K+ dependent pNPPase from pig gastric mucosa. Type of assay: tissue-based, Sus scrofa.
Assay [3] is filed under the species Sus scrofa. Briefly: Inhibition of H(+)/K(+) ATPase from pig gastric mucosa by competitive-double reciprocal plot in presence of ATP. Type of assay: tissue-based.
The species entered for assay [4] is Sus scrofa. The assay is described as follows: Inhibition of H(+)/K(+) ATPase from pig gastric mucosa by non competitive-double reciprocal plot in presence of K+. In kind it is tissue-based.

Regarding `O=C(OC[C@H]1O[C@@H](OC(=O)c2cc(O)c(O)c(OC(=O)c3cc(O)c(O)c(O)c3)c2)[C@H](OC(=O)c2cc(O)c(O)c(OC(=O)c3cc(O)c(O)c(O)c3)c2)[C@@H](OC(=O)c2cc(O)c(O)c(OC(=O)c3cc(O)c(O)c(O)c3)c2)[C@@H]1OC(=O)c1cc(O)c(O)c(OC(=O)c2cc(O)c(O)c(O)c2)c1)c1cc(O)c(O)c(OC(=O)c2cc(O)c(O)c(O)c2)c1` [TANNIC ACID], the IC50 in assay [1] worked out at 29 nM; in assay [2] it was 410 nM. Besides, the result in the assay filed under Sus scrofa [3] and in the assay filed under Sus scrofa [4] was Active.
For `O=c1oc2c(O)c(O)cc3c(=O)oc4c(O)c(O)cc1c4c23` [ELLAGIC ACID], it took 210 nM to reach half-maximal inhibition in assay [1] (IC50). In addition, the outcome in the assay filed under Sus scrofa [3] and in the assay listed under Sus scrofa [4] was Active.
